Assay results reported in patent US20230320956A1, “DIARYLALKANE COMPOUNDS AND COMPOSITIONS FOR USE WITH SKIN AGING AND METHODS OF PRODUCTION THEREOF” (Unigen, Inc., priority 2022, published 2023).

Tested on: skin brightness/luminance, Asian subjects
Assay: Self-assessment of skin brightness/luminance, Asian subjects
Type: in vivo, human
Conditions: Week 8
Protocol: Included subjects were: • 1. Female subjects between the ages of 35-66 (inclusive) in general good health • 2. Asian subjects who had skin brightness/luminance score of “5” (moderately dull/sallow appearance) or greater on the face (for qualification only) as assessed by a trained technician and whose brightness/luminance were evaluated according to the following scale: 0—No dullness/sallowness visible, 1-3—Slightly dull/sallow appearance, 4-6—Moderately dull/sallow appearance, 7-9—Severely dull/sallow appearance. • 3. […] Individuals who could read, understand, and sign the Informed Consent form. • 5. […] At all visits, a trained technician evaluated the face of each subject for irritation. […] Results: Skin brightness/luminance (Asian subjects): In order to determine any changes in skin brightness/luminance, skin brightness (luminosity) was analyzed by Visia CR®. Facial luminance was a single number calculated based on the uniformity of the lightening of the image. […] There were no significant changes to brightness/luminance as assessed by the Visia CR® analysis at any of the clinic visits, although the Mean Score for skin brightness/luminance trended toward an increase at 4 and 8 weeks after starting dimethoxytolyl propylresorcinol use compared to Baseline (Table 24), indicating an improvement in skin brightness/luminance.

COc1ccc(CCCc2ccc(O)cc2O)c(OC)c1C [dimethoxytolyl propylresorcinol, 1-(3-methyl-2,4-dimethoxyphenyl)-3-(2′,4′-dihydroxyphenyl)-propane]
Self-Assessment Skin Brightness/Luminance % Improvement from Baseline: 13%
